Experimental data from patent publication EP0348713A1, “(R,S)-3-(4-phenyl-1-piperazinyl)-1,2-propanediol salts” (DOTT. FORMENTI S.P.A. INDUSTRIA CHIMICA E FARMACEUTICA, priority 1988, dated 1990).
Where a name gives a salt, the structure may show the parent alone.

Experiment: colour stability in pharmaceutical formulations (undesired colors due to degradation products)
Type: physicochemical
Details: particularly suppositories
Excerpt: Said colors, due to degradation products, are evidenced also when using the hydrochloride, whereas they are completely removed when a salt according to the invention is used.

## OCC(O)CN1CCN(c2ccccc2)CC1 (stereo not shown) [hydrochloride]
  undesired colors occuring in the long run: evidenced
